Reference: BindingDB's records for PubMed 8301592 (Washington University, 1994)
Several values for one entry are separate records, joined by “and”; a condition that tells them apart may be missing. Identical values can stand only once.

Biological target: D(3) dopamine receptor (Rattus norvegicus, UniProt P19020)
Sequence (P19020 whole entry): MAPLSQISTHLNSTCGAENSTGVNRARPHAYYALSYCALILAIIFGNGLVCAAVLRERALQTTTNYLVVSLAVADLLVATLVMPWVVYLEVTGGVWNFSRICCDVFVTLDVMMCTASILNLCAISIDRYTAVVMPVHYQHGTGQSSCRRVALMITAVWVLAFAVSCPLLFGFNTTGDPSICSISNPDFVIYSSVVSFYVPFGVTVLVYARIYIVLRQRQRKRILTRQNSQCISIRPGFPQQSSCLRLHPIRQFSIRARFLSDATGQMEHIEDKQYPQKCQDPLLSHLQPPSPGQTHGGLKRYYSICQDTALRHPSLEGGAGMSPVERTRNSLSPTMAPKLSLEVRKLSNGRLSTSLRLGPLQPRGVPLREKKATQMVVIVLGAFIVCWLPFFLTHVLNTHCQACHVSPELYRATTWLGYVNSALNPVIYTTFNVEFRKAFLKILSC

CCc1cc(Cl)c(OC)c(C(=O)NC[C@@H]2CCCN2CC)c1O [3-Chloro-5-ethyl-N-((S)-1-ethyl-pyrrolidin-2-ylmethyl)-6-hydroxy-2-methoxy-benzamide]
Ki: 0.00016 µM and 0.00046 µM

Nc1nc2c(ncn2[C@@H]2O[C@H](COP(=O)(O)OP(=O)(O)NP(=O)(O)O)[C@@H](O)[C@H]2O)c(=O)[nH]1 [Guanylyl imidodiphosphate]
Ki: 0.264 µM and 0.617 µM
